Assay results: ChEMBL document CHEMBL1201862, “PubChem BioAssay data set” (2004)
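Cells were grown in 96-well plates and exposed to each compound for 48 hours at five concentrations; endpoints were interpolated linearly between bracketing concentrations, or set to the highest concentration if not reached. Abbreviation: GI50, concentration required for 50% inhibition of growth.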 The source made the active and inactive calls. Cut-off read from the data, not from the text of the source: active = GI50 up to about 1.1 µM and inactive = higher.

Legend:
Assay in all cases: NCI-60 cell line screen, 48 h
[1] = system: A549
[2] = system: ACHN
[3] = system: DMS-114
[4] = system: DMS-273
[5] = system: HCT-116
[6] = system: HL-60
[7] = system: K562
[8] = system: KM12
[9] = system: M14
[10] = system: NCI-H23
[11] = system: OVCAR-8
[12] = system: RPMI-8226
[13] = system: SF-539
[14] = system: SK-MEL-28
[15] = system: SK-MEL-5
[16] = system: SNB-78
[17] = system: SR
[18] = system: TK-10
[19] = system: NCI/ADR-RES
[20] = system: T47D

| SMILES | GI50 [1] | GI50 [2] | GI50 [3] | GI50 [4] | GI50 [5] | GI50 [6] | GI50 [7] | GI50 [8] | GI50 [9] | GI50 [10] | GI50 [11] | GI50 [12] | GI50 [13] | GI50 [14] | GI50 [15] | GI50 [16] | GI50 [17] | GI50 [18] | GI50 [19] | GI50 [20] |
| --- | --- | --- | --- | --- | --- | --- | --- | --- | --- | --- | --- | --- | --- | --- | --- | --- | --- | --- | --- | --- |
| O=C(O)c1cc2c3ccccc3nc-2c[nH]1 | > 100 µM (inactive) | > 100 µM (inactive) | > 100 µM (inactive) | > 100 µM (inactive) | > 100 µM (inactive) | > 100 µM (inactive) | > 100 µM (inactive) | > 100 µM (inactive) | > 100 µM (inactive) | > 100 µM (inactive) | > 100 µM (inactive) | > 100 µM (inactive) | > 100 µM (inactive) | > 100 µM (inactive) | > 100 µM (inactive) | > 100 µM (inactive) | > 100 µM (inactive) | > 100 µM (inactive) |  |  |
| Cc1nc2nn(C)cc2c(=O)n1/N=C/c1ccccc1 | > 100 µM (inactive) | > 100 µM (inactive) | > 100 µM (inactive) | > 100 µM (inactive) | > 100 µM (inactive) | > 100 µM (inactive) | > 100 µM (inactive) | > 100 µM (inactive) |  | > 100 µM (inactive) | > 100 µM (inactive) | > 100 µM (inactive) | > 100 µM (inactive) | > 100 µM (inactive) | > 100 µM (inactive) | > 100 µM (inactive) | > 100 µM (inactive) | > 100 µM (inactive) |  |  |
| CCOc1ccc(Nc2nc(C)c(C(=O)/C=C/c3ccc(Cl)cc3Cl)s2)cc1 | 23.2 µM (inactive) | 27.4 µM (inactive) | 24.9 µM (inactive) | 21.4 µM (inactive) | 21.1 µM (inactive) | 27.2 µM (inactive) | 33.2 µM (inactive) | 18.3 µM (inactive) | 23.9 µM (inactive) | 22.6 µM (inactive) | 21.4 µM (inactive) | 46.9 µM (inactive) | 27.8 µM (inactive) | 22.7 µM (inactive) | 20 µM (inactive) | 21.4 µM (inactive) | 28.6 µM (inactive) | 22.6 µM (inactive) |  |  |
| Cc1ccc(NC(=O)CC/C(CC(=O)C(C)(C)C)=N/NC(=O)C(N)=O)cc1C | > 100 µM (inactive) | > 100 µM (inactive) | > 100 µM (inactive) | > 100 µM (inactive) | > 100 µM (inactive) | > 100 µM (inactive) | > 100 µM (inactive) | > 100 µM (inactive) | > 100 µM (inactive) | > 100 µM (inactive) | > 100 µM (inactive) | > 100 µM (inactive) | > 100 µM (inactive) | > 100 µM (inactive) | > 100 µM (inactive) | > 100 µM (inactive) | > 100 µM (inactive) | > 100 µM (inactive) |  |  |
| CN(C)c1ccc(/C=N\N2C(=O)c3ccccc3C2=O)cc1 | > 100 µM (inactive) | > 100 µM (inactive) | > 100 µM (inactive) | > 100 µM (inactive) | > 100 µM (inactive) | > 100 µM (inactive) | > 100 µM (inactive) | > 100 µM (inactive) | > 100 µM (inactive) | > 100 µM (inactive) | > 100 µM (inactive) | > 100 µM (inactive) | > 100 µM (inactive) | > 100 µM (inactive) | > 100 µM (inactive) | > 100 µM (inactive) | > 100 µM (inactive) | > 100 µM (inactive) |  |  |
| N#C/C(=C/c1ccsc1)C(=O)c1ccccc1 | > 100 µM (inactive) | > 100 µM (inactive) | > 100 µM (inactive) | > 100 µM (inactive) | > 100 µM (inactive) | > 100 µM (inactive) | > 100 µM (inactive) | > 100 µM (inactive) | > 100 µM (inactive) | > 100 µM (inactive) | > 100 µM (inactive) | > 100 µM (inactive) | > 100 µM (inactive) | > 100 µM (inactive) | > 100 µM (inactive) | > 100 µM (inactive) | > 100 µM (inactive) | > 100 µM (inactive) |  |  |
| COC1=C(OC)C(=O)c2cc(C)c(=O)c(C)cc2C1=O | 20.2 µM (inactive) | 14.8 µM (inactive) | 3.27 µM (inactive) | 25.4 µM (inactive) | 15.3 µM (inactive) | 2.82 µM (inactive) | 3.19 µM (inactive) | 17.6 µM (inactive) | 16.9 µM (inactive) | 16.9 µM (inactive) | 17.3 µM (inactive) | 5.69 µM (inactive) | 18.2 µM (inactive) | 16.5 µM (inactive) | 15.8 µM (inactive) | 18.5 µM (inactive) | 2.65 µM (inactive) | 19.1 µM (inactive) | 17 µM (inactive) | 28.6 µM (inactive) |
| COC(=O)C1=C(C(=O)OC)C2(C(=O)OC)OC1(OC)C(C1(C(=O)OC)C(C(=O)OC)=C1C(=O)OC)=C2C(=O)OC (stereo unspecified) | > 100 µM (inactive) | > 100 µM (inactive) | > 100 µM (inactive) | > 100 µM (inactive) | > 100 µM (inactive) | > 100 µM (inactive) | > 100 µM (inactive) | > 100 µM (inactive) | > 100 µM (inactive) | > 100 µM (inactive) | > 100 µM (inactive) | > 100 µM (inactive) | > 100 µM (inactive) | > 100 µM (inactive) | > 100 µM (inactive) | > 100 µM (inactive) | > 100 µM (inactive) | > 100 µM (inactive) |  |  |
| Nc1ccn(CCCC(c2ccccc2)P(=O)(O)O)c(=O)n1 (stereo unspecified) | > 100 µM (inactive) | > 100 µM (inactive) | > 100 µM (inactive) | > 100 µM (inactive) | > 100 µM (inactive) | > 100 µM (inactive) | > 100 µM (inactive) | > 100 µM (inactive) | > 100 µM (inactive) | > 100 µM (inactive) | > 100 µM (inactive) | > 100 µM (inactive) | > 100 µM (inactive) | > 100 µM (inactive) | > 100 µM (inactive) | > 100 µM (inactive) | > 100 µM (inactive) | > 100 µM (inactive) |  |  |
| CC(C)(C)OC(=O)NCCc1cccc2c1oc1c(CCC(=O)O)cccc12 | > 100 µM (inactive) | > 100 µM (inactive) | > 100 µM (inactive) | > 100 µM (inactive) | > 100 µM (inactive) | > 100 µM (inactive) | > 100 µM (inactive) | > 100 µM (inactive) | > 100 µM (inactive) | > 100 µM (inactive) | > 100 µM (inactive) | > 100 µM (inactive) | > 100 µM (inactive) | > 100 µM (inactive) | > 100 µM (inactive) | > 100 µM (inactive) | > 100 µM (inactive) | > 100 µM (inactive) |  |  |
| CN(C)c1cccc(-c2cc(O)c3cc4c(cc3n2)OCO4)c1 | 0.343 µM (active) | 0.378 µM (active) | 0.236 µM (active) | 0.203 µM (active) | 0.138 µM (active) | 0.112 µM (active) | 0.146 µM (active) | 0.0456 µM (active) | 0.139 µM (active) | 0.326 µM (active) | 0.363 µM (active) | 0.473 µM (active) | 0.171 µM (active) | 0.0553 µM (active) | 0.0776 µM (active) | 62.8 µM (inactive) | 0.708 µM (active) | 1.83 µM (inactive) |  |  |
| CC1OC(=O)C(C(C)C)NC(=O)C(C(C)C)OC(=O)C(C(C)C)NC(=O)C(C)OC(=O)C(C(C)C)NC(=O)C(C(C)C)OC(=O)C(C(C)C)NC(=O)C(C)OC(=O)C(C(C)C)NC(=O)C(C(C)C)OC(=O)C(C(C)C)NC1=O (stereo unspecified) |  | < 0.0001 µM (active) | 0.0025 µM (active) | 0.0025 µM (active) |  | 0.00275 µM (active) | 0.00299 µM (active) | 0.00272 µM (active) | < 0.0001 µM (active) | 0.0025 µM (active) | 0.0025 µM (active) | 0.0025 µM (active) | 0.00333 µM (active) | 0.0025 µM (active) |  | 0.00391 µM (active) | < 0.0001 µM (active) | < 0.0001 µM (active) | 0.00728 µM (active) | < 0.0001 µM (active) |
